Results from JP2022155560A, “スガマデクスの光分解抑制方法” (Fuji Pharma Co Ltd, priority 2021, dated 2022).

Assays:
[1] = Photostability of sugammadex sodium solution in glass containers with or without light-cutting film (Example 1, HPLC); assay type: physicochemical; details: for total amount of substances other than sugammadex: n=3
[2] = Formation of sugammadex photodegradant (disulfide, printed ジスルフィド体) on light irradiation (Example 2, HPLC); assay type: physicochemical; details: after light irradiation, n=3
[3] = after light irradiation (1,200,000 lux·h, 280 W·h/m2), UVcut 500 film compared with UVcut 400 film
[4] = after light irradiation (1,200,000 lux·h, 280 W·h/m2), film-wrapped samples (UVcut 400 or UVcut 500), compared with no film wrapping

O=C([O-])CCSC[C@H]1O[C@@H]2O[C@H]3[C@H](O)[C@@H](O)[C@@H](O[C@H]4[C@H](O)[C@@H](O)[C@@H](O[C@H]5[C@H](O)[C@@H](O)[C@@H](O[C@H]6[C@H](O)[C@@H](O)[C@@H](O[C@H]7[C@H](O)[C@@H](O)[C@@H](O[C@H]8[C@H](O)[C@@H](O)[C@@H](O[C@H]9[C@H](O)[C@@H](O)[C@@H](O[C@H]1[C@H](O)[C@H]2O)O[C@@H]9CSCCC(=O)[O-])O[C@@H]8CSCCC(=O)[O-])O[C@@H]7CSCCC(=O)[O-])O[C@@H]6CSCCC(=O)[O-])O[C@@H]5CSCCC(=O)[O-])O[C@@H]4CSCCC(=O)[O-])O[C@@H]3CSCCC(=O)[O-].[Na+].[Na+].[Na+].[Na+].[Na+].[Na+].[Na+].[Na+] [スガマデクス, octakis(6-S-(2-carboxyethyl)-6-thio)cyclomaltooctaose octasodium salt]
effect of suppressing increase of photodegradation products [1, 3]: 顕著に高かった | purity of sugammadex [1, 3]: 純度が高く | increase in total amount of substances other than sugammadex [1, 4]: 増大が抑えられており | residual rate of sugammadex [1, 4]: 残存率が高かった | total amount of substances other than sugammadex ([1]; after light irradiation (1,200,000 lux·h, 280 W·h/m2), no film wrapping): 5.12% | total amount of substances other than sugammadex ([1]; before light irradiation, no film wrapping, 100 mg/mL aqueous solution, pH 7-8): 2.14% | photodegradation of sugammadex ([1]; chromatograms before vs after light irradiation, no film wrapping): 光照射により分解されたことが確認された | formation of sugammadex disulfoxide (スガマデクスのジスルフィド体 in the source) ([2]; light up to 400 nm cut, relative to sample without film wrapping): フィルム包装なしのサンプルの半分程度 | formation of sugammadex disulfoxide (スガマデクスのジスルフィド体 in the source) ([2]; light up to 500 nm cut): ほとんど生成されていなかった
